Assays:
[1] = target: T1, miRFP670 (Rhodopseudomonas palustris, UniProt A0A161I5N6, D200T/I252C, form not given); assay: time-resolved absorption and stimulated Raman spectroscopy, SDS-PAGE; format: binding; conditions: covalent; Cys253 GAF thioether, then a second thioether to Cys20 PAS; pH 8.0, 20 mM Tris-HCl, 150 mM NaCl, DTT
T1 construct: engineered monomeric PAS-GAF fragment derived from RpBphP1; Cys20 (PAS) and Cys253 (GAF); about 35 kDa; N-terminal polyhistidine tag; apoprotein expressed in E. coli LMG194 without heme oxygenase

[2] = target: T2, miRFP709 (Rhodopseudomonas palustris, UniProt A0A161I5N6); assay: time-resolved absorption and stimulated Raman spectroscopy; format: binding; conditions: covalent; thioether to Cys in PAS; pH 8.0, 20 mM Tris-HCl, 150 mM NaCl, DTT
T2 construct: engineered monomeric PAS-GAF fragment derived from RpBphP1; Cys in PAS only, none in GAF; about 35 kDa; N-terminal polyhistidine tag; apoprotein expressed in E. coli LMG194 without heme oxygenase
Source text: time-resolved absorption and stimulated Raman spectroscopy on miRFP709 | We assign the 18-min reaction to the covalent bond formation to Cys in the PAS

T1 sequence (A0A161I5N6 1-314 D200T/I252C limits assumed): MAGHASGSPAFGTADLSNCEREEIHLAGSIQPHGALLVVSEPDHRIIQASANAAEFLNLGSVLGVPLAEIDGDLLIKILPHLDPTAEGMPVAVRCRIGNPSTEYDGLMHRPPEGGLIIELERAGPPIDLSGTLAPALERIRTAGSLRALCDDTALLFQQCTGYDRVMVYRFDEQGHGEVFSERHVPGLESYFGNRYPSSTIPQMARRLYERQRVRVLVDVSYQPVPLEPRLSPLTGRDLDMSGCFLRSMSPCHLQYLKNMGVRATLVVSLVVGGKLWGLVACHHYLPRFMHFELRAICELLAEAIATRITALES
T2 sequence (A0A161I5N6 1-314 limits assumed): as the sequence (A0A161I5N6 1-314 D200T/I252C limits assumed) above, with T200D, C252I counted along it

With C=CC1=C(C)C(=Cc2[nH]c(C=C3N=C(C=C4NC(=O)C(C)=C4C=C)C(C)=C3CCC(=O)O)c(CCC(=O)O)c2C)NC1=O [biliverdin] the “time constant of C-S bond formation (Cys in GAF)” value [1] was 4.3 min and the “time constant of C-S bond formation (Cys in PAS)” value [2] was 18 min.
